Results reported in article PMC3947168 (Molecular cancer therapeutics, 2013).
pIC50, pKi: −log10 of the molar value. Like-named read-outs stand apart in the source and are kept apart here. Each block holds one compound with its values, some of them ahead of it.

Columns and labels:
MDA-MB-231 cells = assay: MTT cellular proliferation assay, MDA-MB-231; assay type: cell-based; settings: Homo sapiens, MDA-MB-231, 72 h, read-out: Growth inhibition (IC50)
HT29 cells = assay: MTT cellular proliferation assay, HT29; assay type: cell-based; settings: Homo sapiens, HT-29, 72 h, read-out: Growth inhibition (IC50)
SW1736 cells [1] = assay: MTT cellular proliferation assay, SW1736; assay type: cell-based; settings: Homo sapiens, SW-1736, read-out: inhibition of cell growth
TL3 cells [2] = assay: MTT cellular proliferation assay, TL3; assay type: cell-based; settings: Homo sapiens; for pIC50: 72 h, read-out: Growth inhibition (IC50)
[3] = test system: thyroid cancer cell lines (SW1736, T2, TL3, BHP2-7); assay: MTT cellular proliferation assay, responsive thyroid cancer cell lines; assay type: cell-based; settings: Homo sapiens, SW-1736, 72 h, read-out: IC50 of proliferation
[4] = test system: p-AKT, p-STAT3, p-ERK, p-4E-BP1; assay: c-MET downstream signaling; assay type: cell-based, human; settings: SW1736 and TL3; for levels of p-STAT3 and p-AKT / phosphorylation of ERK and 4E-BP1: 0.1, 1.0, and 10 μM
SW1736 cells [5] = assay: Cell cycle analysis; assay type: cell-based, human; settings: 24 hour, diluent control 9%
T2 cells [6] = assay: Cell cycle analysis; assay type: cell-based, human; settings: 24 hour, control 3%
TL3 cells [7] = assay: Cell cycle analysis; assay type: cell-based, human; settings: 24 hour, control 2%
SW1736 cells [8] = assay: Apoptosis assay; assay type: cell-based, human; settings: 10 μM, 24 hours, diluent control 10%
T2 cells [9] = assay: Apoptosis assay; assay type: cell-based, human; settings: 10 μM, 24 hours, diluent control 11%
TL3 cells [10] = assay: Apoptosis assay; assay type: cell-based, human; settings: 10 μM, 24 hours, diluent control 10%
[11] = test system: SW1736 human anaplastic thyroid tumor xenografts; assay: Murine xenograft model; assay type: in vivo, nu/nu athymic mice
[12] = test system: PTC cell lines (BHP, B-CPAP and TPC-1); settings: cited from earlier work
c-MET [13] = molecular target: T1, c-MET (Homo sapiens, UniProt P08581); settings: 10μM; SW1736 and TL3; HGF 20 ng/ml, 10 minutes
T1 sequence (P08581 25-1390): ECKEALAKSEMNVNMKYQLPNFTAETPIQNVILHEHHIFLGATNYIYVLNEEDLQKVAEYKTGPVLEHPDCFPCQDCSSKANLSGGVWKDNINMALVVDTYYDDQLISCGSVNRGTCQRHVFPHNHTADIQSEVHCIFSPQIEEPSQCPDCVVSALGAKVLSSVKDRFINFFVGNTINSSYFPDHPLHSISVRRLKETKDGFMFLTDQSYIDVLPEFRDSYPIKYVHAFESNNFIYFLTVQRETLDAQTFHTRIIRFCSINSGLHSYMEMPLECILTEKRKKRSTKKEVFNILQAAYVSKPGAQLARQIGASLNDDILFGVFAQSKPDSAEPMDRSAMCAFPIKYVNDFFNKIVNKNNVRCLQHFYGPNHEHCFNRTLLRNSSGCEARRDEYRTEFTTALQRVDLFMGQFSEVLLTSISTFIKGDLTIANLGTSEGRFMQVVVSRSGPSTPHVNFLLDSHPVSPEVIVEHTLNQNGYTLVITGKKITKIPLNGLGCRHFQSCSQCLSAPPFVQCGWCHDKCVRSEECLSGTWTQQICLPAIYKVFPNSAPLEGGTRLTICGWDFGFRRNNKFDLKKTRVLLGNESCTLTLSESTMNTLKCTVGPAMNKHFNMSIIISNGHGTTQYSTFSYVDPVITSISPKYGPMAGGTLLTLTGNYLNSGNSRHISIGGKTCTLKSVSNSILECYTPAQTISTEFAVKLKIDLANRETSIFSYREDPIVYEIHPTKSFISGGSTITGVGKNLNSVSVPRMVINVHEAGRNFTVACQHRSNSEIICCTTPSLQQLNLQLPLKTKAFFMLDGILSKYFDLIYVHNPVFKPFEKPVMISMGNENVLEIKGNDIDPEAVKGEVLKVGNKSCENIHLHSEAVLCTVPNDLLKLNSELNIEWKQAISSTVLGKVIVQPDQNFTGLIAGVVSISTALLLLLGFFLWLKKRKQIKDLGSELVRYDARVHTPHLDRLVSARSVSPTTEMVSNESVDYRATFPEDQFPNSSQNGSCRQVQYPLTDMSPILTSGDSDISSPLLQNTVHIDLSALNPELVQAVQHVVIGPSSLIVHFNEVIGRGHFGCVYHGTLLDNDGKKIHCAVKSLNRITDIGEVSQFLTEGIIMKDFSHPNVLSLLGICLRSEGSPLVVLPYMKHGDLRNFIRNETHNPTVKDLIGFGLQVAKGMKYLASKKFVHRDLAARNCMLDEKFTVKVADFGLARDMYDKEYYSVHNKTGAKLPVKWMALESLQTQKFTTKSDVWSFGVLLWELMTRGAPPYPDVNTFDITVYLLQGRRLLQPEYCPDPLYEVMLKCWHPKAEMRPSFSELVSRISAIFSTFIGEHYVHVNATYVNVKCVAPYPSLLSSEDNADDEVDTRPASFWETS

c-MET [14] = molecular target: T1, c-MET; assay: HGF induced c-MET phosphorylation; assay type: cell-based
c-MET [15] = molecular target: T1, c-MET; assay: HGF induced c-MET phosphorylation; assay type: cell-based; remark: listed apart in the source
c-MET [16] = molecular target: T1, c-MET; assay: HGF induced c-MET phosphorylation; assay type: cell-based; remark: listed apart in the source
c-MET [17] = molecular target: T1, c-MET; assay: HGF induced c-MET phosphorylation; assay type: cell-based; remark: listed apart in the source
c-MET [18] = settings: read-out: Ki value, c-MET; biochemical analysis; cited from earlier work
c-MET [19] = molecular target: T1, c-MET; settings: read-out: p-MET inhibition (IC50); MDA-MB-231; Report; cited from earlier work
c-MET [20] = molecular target: T1, c-MET; settings: read-out: p-MET inhibition (IC50); HT-29; Report; cited from earlier work

- pIC50 (MDA-MB-231 cells): 5.55
- pIC50 (HT29 cells): 5.59
- pIC50 [3]: 5.46 to 5.70
Compound: C[C@@H](Oc1cc(-c2cnn(C3CCNCC3)c2)cnc1N)c1c(Cl)ccc(F)c1Cl [Crizotinib]
- inhibition at 1 µM (SW1736 cells [1]): < 50%
- pIC50 (TL3 cells [2]): 5.59
- inhibition at 0.1 µM (TL3 cells [2]; read-out: inhibition of cell growth): < 20%
- levels of p-STAT3 and p-AKT [4]: potently decreased
- phosphorylation of ERK and 4E-BP1 [4]: not significantly altered
- mean G2/M arrest (cells in G2/M) (SW1736 cells [5]; 10 μM): 74%
- cells in G2/M (T2 cells [6]; 10 μM): 26%
- cells in G2/M (TL3 cells [7]; 10 μM): 48%
- apoptosis (% Annexin V positive cells) (SW1736 cells [8]): 15%
- apoptosis (% Annexin V positive cells) (T2 cells [9]): 19%
- apoptosis (% Annexin V positive cells) (TL3 cells [10]): 27%
- decrease of mean tumor volume compared to vehicle group ([11]; 50 mg/kg daily oral gavage, day 50): 55.8%
- Ki67 positivity in tumor tissue compared to vehicle ([11]; 50 mg/kg, day 50, immunohistochemistry): less
- c-MET phosphorylation in tumor tissue compared to vehicle ([11]; 50 mg/kg, tumors dissected 4 hours after drug administration at day 50, western blotting): less

Compound: Cc1[nH]c(/C=C2\C(=O)Nc3ccc(S(=O)(=O)Cc4c(Cl)cccc4Cl)cc32)c(C)c1C(=O)N1CCC[C@@H]1CN1CCCC1 [PHA665752]
- in vitro growth of PTC cell lines [12]: growth inhibited

- effect on p-MET (c-MET [13]): inhibited
Compound: Cc1[nH]c(/C=C2\C(=O)Nc3ccc(S(=O)(=O)N(C)c4cccc(Cl)c4)cc32)c(C)c1C(=O)N1CCN(C)CC1 [SU11274]
- effect on p-AKT, p-STAT3 ([4]; 10μM): inhibited

- pIC50 (MDA-MB-231 cells): 6.19
- pIC50 (HT29 cells): 6.27
- pIC50 [3]: 6.00 to 7.00
- pIC50 (c-MET [14]): < 6.00
- pIC50 (c-MET [15]): < 6.00
- pIC50 (c-MET [16]): ~6.00
- pIC50 (c-MET [17]): ~6.00
Compound: O=C1NC(=O)[C@@H](c2cn3c4c(cccc24)CCC3)[C@@H]1c1c[nH]c2ccccc12 [Tivantinib]
- pIC50 (TL3 cells [2]): 6.48
- levels of p-STAT3 and p-AKT [4]: potently decreased
- phosphorylation of ERK and 4E-BP1 [4]: not significantly altered
- mean G2/M arrest (cells in G2/M) (SW1736 cells [5]; 1 μM): 57%
- cells in G2/M (T2 cells [6]; 1 μM): 45%
- cells in G2/M (TL3 cells [7]; 1 μM): 23%
- apoptosis (% Annexin V positive cells) (SW1736 cells [8]): 14%
- apoptosis (% Annexin V positive cells) (T2 cells [9]): 21%
- apoptosis (% Annexin V positive cells) (TL3 cells [10]): 20%
- pKi (c-MET [18]): 6.45
- pIC50 (c-MET [19]): 6.52 to 7.00
- pIC50 (c-MET [20]): 6.52 to 7.00
